Paper PMC4111603 (PLoS ONE, 2014)
Like-named read-outs stand apart in the source and are kept apart here.

Experiments:
µ-opoid receptors = conditions: cited from earlier work
COX-2 [1] = conditions: read-out: IC50, 2-AG oxygenation; cited from earlier work
Ovine COX-1 = target: T1, Ovine COX-1 (Ovis aries, UniProt P05979); test: COX-1 oxygenation of arachidonic acid, oxygen electrode; assay type: biochemical; conditions: for inhibition at 300 µM: 300 µM compound, read-out: inhibition of COX-1-catalysed oxygenation of arachidonic acid; for COX-1 activity (% of control): 10 µM AA, initial activity 10-30 s, mean ± s.e.m., n = 3
T1 construct: purchased Cayman Chemical Co. 60100
T1 sequence (P05979 25-600): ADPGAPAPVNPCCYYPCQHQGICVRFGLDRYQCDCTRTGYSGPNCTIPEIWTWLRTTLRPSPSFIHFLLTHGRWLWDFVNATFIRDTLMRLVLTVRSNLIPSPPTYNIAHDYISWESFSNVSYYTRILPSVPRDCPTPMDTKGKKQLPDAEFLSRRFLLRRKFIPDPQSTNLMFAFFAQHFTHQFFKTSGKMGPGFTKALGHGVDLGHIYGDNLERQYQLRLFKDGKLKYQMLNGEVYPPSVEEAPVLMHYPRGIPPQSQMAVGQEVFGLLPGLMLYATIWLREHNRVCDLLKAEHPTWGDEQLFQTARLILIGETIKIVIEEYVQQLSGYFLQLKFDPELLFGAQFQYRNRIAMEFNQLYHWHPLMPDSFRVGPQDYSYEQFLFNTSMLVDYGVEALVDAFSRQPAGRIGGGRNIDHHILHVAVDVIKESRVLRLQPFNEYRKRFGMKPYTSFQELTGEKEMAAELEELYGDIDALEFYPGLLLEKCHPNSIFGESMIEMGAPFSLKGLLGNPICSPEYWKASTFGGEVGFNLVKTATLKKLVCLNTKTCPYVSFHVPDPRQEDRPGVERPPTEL
Method: (§1) The assay was performed according to Meade et al. with minor modifications using an oxygen electrode chamber with integral stirring (Oxygraph System, Hansatech Instruments, King’s Lynn, U.K.). The electrode was calibrated to ambient temperature and air pressure. Samples were prepared in 0.1 M Tris-HCl buffer pH 7.4 containing 1 µM haematin, 2 mM phenol, 5 mM EDTA, 10 µM substrate (AA or 2-AG) (final assay volume was 2 ml). After addition of test substance dissolved in DMSO (final assay concentration 1%) a baseline was established for 5 min before initiation of reaction by addition of 200 units COX-1 or COX-2. Change in oxygen consumption was monitored for approximately 5 min.
(§2) FAAH inhibition was calculated using log(inhibitor) vs. response with variable slope (four parameters) algorithm in the GraphPad Prism computer program (GraphPad Software Inc., San Diego, CA. USA). […] The two curves were compared by Akaike’s informative criteria and the best fit was chosen. Initial COX activities were calculated as the change in oxygen tension between 10 and 30 seconds after addition of enzyme.

COX-2 [2] = conditions: read-out: IC50, AA oxygenation by COX-2; cited from earlier work
rat brain FAAH = target: T2, rat brain FAAH (Rattus norvegicus, UniProt P97612); test: FAAH hydrolysis of [3H]AEA in rat brain homogenates; assay type: biochemical; conditions: 0.5 µM AEA; for inhibition at 1000 µM: read-out: % inhibition of [3H]AEA hydrolysis @ 1000 µM, 1000 µM compound
T2 construct: FAAH activity was quantified by measuring hydrolysis of tritium labelled AEA in rat brain homogenates; from tissue; host or cells: rat brain (minus cerebella), Wistar or Sprague-Dawley, washed membrane pellets
T2 sequence (P97612 1-579): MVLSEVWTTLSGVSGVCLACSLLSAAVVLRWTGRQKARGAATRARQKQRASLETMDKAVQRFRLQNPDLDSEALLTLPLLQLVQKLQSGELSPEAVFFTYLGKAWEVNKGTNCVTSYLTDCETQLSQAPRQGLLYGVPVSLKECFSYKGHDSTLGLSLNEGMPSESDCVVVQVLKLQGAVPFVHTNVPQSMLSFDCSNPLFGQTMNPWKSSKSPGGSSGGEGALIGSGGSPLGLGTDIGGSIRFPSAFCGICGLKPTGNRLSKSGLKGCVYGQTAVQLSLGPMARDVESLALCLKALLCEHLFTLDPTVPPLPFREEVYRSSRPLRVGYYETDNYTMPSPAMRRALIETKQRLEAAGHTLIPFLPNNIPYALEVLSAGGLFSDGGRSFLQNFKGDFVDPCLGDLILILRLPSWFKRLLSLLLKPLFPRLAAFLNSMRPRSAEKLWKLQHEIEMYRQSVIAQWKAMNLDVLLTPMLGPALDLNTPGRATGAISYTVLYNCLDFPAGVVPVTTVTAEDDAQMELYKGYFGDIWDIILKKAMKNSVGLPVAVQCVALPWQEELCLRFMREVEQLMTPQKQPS
Method: Brains (minus cerebella) from adult Wistar or Sprague-Dawley stored at −80°C were thawed, weighed and homogenized in cold buffer (20 mM HEPES, 1 mM MgCl2 pH 7.0). Homogenates were centrifuged at 35,000 g at 4°C for 20 min and the pellet was resuspended in homogenization buffer (repeated twice) before being incubated at 37°C for 15 min to degrade any endogenous substrate that might interfere with the FAAH assay. Following centrifugation, the pellets were resuspended in cold buffer (50 mM Tris-HCl, 1 mM EDTA, 3 mM MgCl2, pH 7.4). The protein concentration of each homogenates was determined according to the Bradford assay after which the samples were frozen in aliquots at −80°C until used for FAAH assay. Ethical permission for the animal experiments was obtained from the local animal research ethical committee (Umeå Ethical Committee for Animal Research, Umeå, Sweden).
The assay was performed according to Boldrup et al.. Homogenates (1 µg protein per assay) diluted in 10 mM Tris-HCl, 1 mM EDTA, pH 7.4 or pH 5.1 were mixed with test substance dissolved in DMSO (total concentration in assay 5%) at an ambient temperature of 4°C. Reactions were initiated by addition of AEA-[^3H] (assay concentration 0.5 µM) in 10 mM Tris-HCl, 1 mM EDTA, pH 7.4 containing 10 mg ml^−1 fatty acid-free bovine serum and incubation at 37°C which was allowed to proceed for 10 min. […] Blank samples contained buffer instead of homogenate and DMSO (5%). The assay volume of each sample was 200 µl. The pH values given in the text were determined by measurement at 37°C of scaled-up mixtures of homogenization and assay buffers. The reaction was terminated by addition of 400 µl activated charcoal (80 µl activated charcoal +320 µl 0.5 M HCl) and placement of samples on ice. Samples were kept in room temperature for 45–60 min before being centrifuged at 2500 rpm for 10 min. Aliquots (200 µl) of the supernatant was analyzed for tritium content by liquid scintillation with quench correction.
as §2

COX-1 = test system: COX-1; set-up: method as in PMID 24120370; conditions: read-out: IC50, AA oxygenation by COX-1; cited from earlier work
[3] = cited from earlier work
[4] = cited from earlier work; for urinary recovery: 24 h after administration of 400 mg of ibuprofen
[5] = target: fatty acid amide hydrolase (FAAH); conditions: cited from earlier work
FAAH = test system: FAAH; set-up: method as in PMID 16997568; conditions: pH 6 and 8; rat brain homogenates; cited from earlier work
NAAA = test system: NAAA; set-up: method as in PMID 16154384; conditions: cited from earlier work
human recombinant COX-2 [6] = target: T3, human recombinant COX-2 (Homo sapiens, UniProt P35354); test: COX-2 oxygenation of 2-AG, oxygen electrode; assay type: biochemical; conditions: for COX-2 activity (% of control): substrate 2-AG 10 µM, initial activity 10-30 s, n = 3
T3 construct: purchased Cayman Chemical Co. 60122
T3 sequence (P35354 18-604): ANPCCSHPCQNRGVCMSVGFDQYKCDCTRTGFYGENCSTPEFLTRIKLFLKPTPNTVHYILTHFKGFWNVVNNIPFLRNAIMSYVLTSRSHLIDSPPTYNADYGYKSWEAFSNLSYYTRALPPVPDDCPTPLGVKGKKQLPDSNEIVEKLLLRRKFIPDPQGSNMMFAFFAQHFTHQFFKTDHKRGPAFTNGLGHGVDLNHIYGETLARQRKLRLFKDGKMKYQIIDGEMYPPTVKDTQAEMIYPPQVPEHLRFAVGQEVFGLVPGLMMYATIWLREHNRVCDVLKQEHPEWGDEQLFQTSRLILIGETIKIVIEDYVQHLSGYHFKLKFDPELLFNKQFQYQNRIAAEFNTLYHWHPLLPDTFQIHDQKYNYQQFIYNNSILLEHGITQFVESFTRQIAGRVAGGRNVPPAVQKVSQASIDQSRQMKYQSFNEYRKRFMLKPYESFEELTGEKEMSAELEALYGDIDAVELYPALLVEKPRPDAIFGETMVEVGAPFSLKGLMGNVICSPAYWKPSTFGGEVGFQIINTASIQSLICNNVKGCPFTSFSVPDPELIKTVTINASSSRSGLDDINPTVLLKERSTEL
Method: as §1, §2

human recombinant COX-2 [7] = target: T3, human recombinant COX-2; test: COX-2 oxygenation of arachidonic acid, oxygen electrode; assay type: biochemical; conditions: for COX-2 activity (% of control): substrate AA 10 µM, initial activity 10-30 s, n = 3
Method: as §1, §2

[8] = pH 6.0, read-out: IC50, inhibition of [3H]AEA hydrolysis (converted)
[9] = pH 6.0, read-out: pI50, inhibition of [3H]AEA hydrolysis (converted)

CN1CC[C@]23c4c5ccc(O)c4O[C@H]2[C@@H](O[C@@H]2O[C@H](C(=O)O)[C@@H](O)[C@H](O)[C@H]2O)C=C[C@H]3[C@H]1C5 [6-glucuronide metabolite of morphine]
potency relative to parent drug (morphine) (µ-opoid receptors): 2–4 times

CC(C(=O)O)c1ccc(-c2ccccc2)c(F)c1 (racemic) [Flurbiprofen, (±)-2-flouro-α-methyl(1,1′-biphenyl)-4-acetic acid, reference compound]
IC50 (COX-2 [1]): […] | inhibition of COX-1 (Ovine COX-1; 30 µM compound): Complete inhibition | IC50 (COX-2 [2]): […] | IC50 (rat brain FAAH; [8]): 28 µM | IC50 (rat brain FAAH; [9]): 27.5 µM | IC50 (rat brain FAAH; pH 7.3, read-out: IC50, inhibition of [3H]AEA hydrolysis (converted)): 51 µM | IC50 (rat brain FAAH; pH 7.3, read-out: pI50, inhibition of [3H]AEA hydrolysis (converted)): 51.3 µM | IC50 (COX-1): […] | maximal plasma concentration (racemate equivalent of R- and S-enantiomers) ([3]; dose of 50 mg): […] | share of the dose recovered in the urine ([4]; flurbiprofen 50 mg a day for 10 consecutive days): 23%

CC(C)Cc1ccc(C(C)C(=O)O)cc1 (racemic) [Ibuprofen, (±)-2-(4-Isobutylphenyl)propanoic acid]
peak plasma concentration ([3]; 200 mg single doses of two different ibuprofen preparations): 110 to 150 µM | urinary recovery [4]: 11% | IC50 ([5]; read-out: potency, inhibition of AEA hydrolysis by FAAH): 270 µM

NC(=O)c1cccc(-c2cccc(OC(=O)NC3CCCCC3)c2)c1 [URB597]
inhibition of AEA hydrolysis (FAAH): completely inhibits | activity towards NAAA (NAAA): lacks activity

Cc1cccnc1NC(=O)C(C)c1ccc(CC(C)C)cc1 (stereo not drawn)
potency as FAAH inhibitor at pH 6 versus pH 8 [5]: slightly less potent inhibitor of FAAH at pH 6 than at pH 8

CC(Cc1ccc(C(C)C(=O)O)cc1)C(=O)O (stereo not drawn) [Carboxyibuprofen, 2-[4-(2-carboxypropyl)phenyl]propionic acid]
COX-2 activity (% of control) (human recombinant COX-2 [6]; 100 µM NSAID): 105±19 % of control | COX-2 activity (% of control) (human recombinant COX-2 [6]; 300 µM NSAID): 132±17 % of control | effect on rate of oxygenation of 2-AG (human recombinant COX-2 [6]; 300 µM compound, Fig. S1): appeared to increase the rate of oxygenation | effect on rate of oxygenation of AA (human recombinant COX-2 [7]; 10 µM compound, Fig. S2, preliminary, two experiments): appeared to increase the rate of oxygenation | COX-2 activity (% of control) (human recombinant COX-2 [7]; 100 µM NSAID): 132±16 % of control | COX-2 activity (% of control) (human recombinant COX-2 [7]; 300 µM NSAID): 139±41 % of control | inhibition at 300 µM (Ovine COX-1): 4% | IC50 (rat brain FAAH; [8]): 410 µM | IC50 (rat brain FAAH; [9]): 417 µM | inhibition at 1000 µM (rat brain FAAH; pH 7.3): 31 ± 4% | urinary recovery [4]: 40%

CC(C(=O)O)c1ccc(C(O)C(C)C)cc1 (stereo not drawn) [1′-OH-Ibuprofen, 2-[4-(1-hydroxy-2-methylpropyl)phenyl]propionic acid]
COX-2 activity (% of control) (human recombinant COX-2 [6]; 100 µM NSAID): 103±22 % of control | COX-2 activity (% of control) (human recombinant COX-2 [6]; 300 µM NSAID): 108±15 % of control | COX-2 activity (% of control) (human recombinant COX-2 [7]; 100 µM NSAID): 91±8 % of control | COX-2 activity (% of control) (human recombinant COX-2 [7]; 300 µM NSAID): 59±13 % of control | COX-1 activity (% of control) (Ovine COX-1; 100 µM NSAID): 112±21 % of control | COX-1 activity (% of control) (Ovine COX-1; 300 µM NSAID): 81±21 % of control | inhibition at 300 µM (Ovine COX-1): 19% | COX-1 activity (% of control) (Ovine COX-1; 1000 µM NSAID): 102±18 % of control | IC50 (rat brain FAAH; [8]): 340 µM | IC50 (rat brain FAAH; [9]): 339 µM | inhibition at 1000 µM (rat brain FAAH; pH 7.3): 47 ± 0.8%
